Source: patent publication US20060069132A1, “Azolecarboxamide herbicides” (priority 2004, published 2006)

How the values were obtained:
barnyardgrass [1] = test: Test B pre-/postemergence herbicide test; type: in vivo, Echinochloa crus-galli; details: for Barnyardgrass plant response rating: postemergence, visual rating, scale 0 (no effect) to 100 (complete control)
How it was run: (§1)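 Flooded paddy rice and barnyardgrass were treated at the 2-leaf stage; upland plantings received compound either on sown seed or on 1- to 4-leaf seedlings. All were kept 13–15 days in a greenhouse and scored visually, 0–100, relative to untreated plants.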

Surinam grass = test: Test B pre-/postemergence herbicide test; type: in vivo, Urochloa decumbens; details: for Surinam Grass plant response rating: postemergence, visual rating, scale 0 (no effect) to 100 (complete control)
How it was run: (§2)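 Response was scored visually 13 to 15 days after treatment against untreated greenhouse controls, 0 meaning no effect and 100 complete control. Formulations (solvent mixture plus surfactant) went onto soil after planting, onto foliage of 1- to 4-leaf plants, and onto 2-leaf plants in a flooded paddy set including rice and barnyardgrass.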

cocklebur = test: Test B pre-/postemergence herbicide test; type: in vivo, Xanthium strumarium; details: for Cocklebur plant response rating: postemergence, visual rating, scale 0 (no effect) to 100 (complete control)
How it was run: as §1

corn = test: Test B pre-/postemergence herbicide test; type: in vivo, Zea mays; details: for Corn plant response rating: postemergence, visual rating, scale 0 (no effect) to 100 (complete control)
How it was run: as §2

large crabgrass = test: Test B pre-/postemergence herbicide test; type: in vivo, Digitaria sanguinalis; details: for Crabgrass, Large plant response rating: postemergence, visual rating, scale 0 (no effect) to 100 (complete control)
How it was run: as §2

giant foxtail = test: Test B pre-/postemergence herbicide test; type: in vivo, Setaria faberi; details: for Foxtail, Giant plant response rating: postemergence, visual rating, scale 0 (no effect) to 100 (complete control)
How it was run: as §2

lambsquarters = test: Test B pre-/postemergence herbicide test; type: in vivo, Chenopodium album; details: for Lambsquarters plant response rating: postemergence, visual rating, scale 0 (no effect) to 100 (complete control)
How it was run: as §2

morningglory = test: Test B pre-/postemergence herbicide test; type: in vivo, Ipomoea coccinea; details: for Morningglory plant response rating: postemergence, visual rating, scale 0 (no effect) to 100 (complete control)
How it was run: as §1

pigweed = test: Test B pre-/postemergence herbicide test; type: in vivo, Amaranthus retroflexus; details: for Pigweed plant response rating: postemergence, visual rating, scale 0 (no effect) to 100 (complete control)
How it was run: as §2

rice [2] = test: Test B pre-/postemergence herbicide test; type: in vivo, Oryza sativa; details: preemergence
How it was run: as §2

velvetleaf = test: Test B pre-/postemergence herbicide test; type: in vivo, Abutilon theophrasti; details: for Velvetleaf plant response rating: postemergence, visual rating, scale 0 (no effect) to 100 (complete control)
How it was run: as §2

blackgrass = test: Test B postemergence herbicide test; type: in vivo, Alopecurus myosuroides; details: postemergence, visual rating, scale 0 (no effect) to 100 (complete control)
How it was run: (§3)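 After treating 2-leaf paddy plants or 2–18 cm postemergence plants (1 to 4 leaves) with formulated chemical, researchers kept them in a greenhouse for 13–15 days. Effects were judged visually versus controls: 0 indicates none, 100 total control.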

wheat = test: Test B postemergence herbicide test; type: in vivo, Triticum aestivum; set-up: key to Wheat plant response rating: 0 = no effect, 100 = complete control; details: postemergence, visual rating, scale 0 (no effect) to 100 (complete control)
How it was run: (§4)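 Treated at 2-leaf (paddy) or 1–4-leaf, 2–18 cm (postemergence); greenhouse 13–15 d; visual score vs control, 0 none to 100 complete control; dash = not tested.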

wild oat = test: Test B postemergence herbicide test; type: in vivo, Avena fatua; details: postemergence, visual rating, scale 0 (no effect) to 100 (complete control)
How it was run: as §4

rice [3] = test: Test B flooded paddy test; type: in vivo, Oryza sativa; details: 1000 g ai/ha, visual rating, scale 0 to 100 (0 no effect, 100 complete control), 13 to 15 days
How it was run: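 Postemergence plants were sprayed with formulated test chemicals at 2 to 18 cm height (1- to 4-leaf stage); paddy species were grown to the 2-leaf stage. After 13 to 15 days in a greenhouse, injury was rated visually against untreated controls on a 0–100 scale (0 = no effect, 100 = complete control).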

[4] = test system: small flower umbrella sedge; test: Test B flooded paddy test; type: in vivo, Cyperus difformis; details: 1000 g ai/ha, visual rating, scale 0 to 100 (0 no effect, 100 complete control), 13 to 15 days
How it was run: as §3

ducksalad = test: Test B flooded paddy test; type: in vivo, Heteranthera limosa; details: 1000 g ai/ha, visual rating, scale 0 to 100 (0 no effect, 100 complete control), 13 to 15 days
How it was run: as §3

barnyardgrass [5] = test: Test B flooded paddy test; type: in vivo, Echinochloa crus-galli; details: 1000 g ai/ha, visual rating, scale 0 to 100 (0 no effect, 100 complete control), 13 to 15 days
How it was run: as §3

[6] = 125 g ai/ha, 0 = no effect, 100 = complete control, preemergence
[7] = 500 g ai/ha, visual rating 0-100, 0 no effect, 100 complete control, preemergence

SMILES: CC(=NO)c1cccc(NC(=O)c2nn(C(C)(C)C)cc2C(F)(F)F)c1 [Compound 171]
- Barnyardgrass plant response rating (0 to 100 scale) (barnyardgrass [1]; [6]): 0
- Plant response rating, Barnyardgrass (barnyardgrass [1]; [7]): 0
- Barnyardgrass plant response rating (barnyardgrass [1]; 125 g ai/ha): 0
- Barnyardgrass plant response rating (barnyardgrass [1]; 500 g ai/ha): 10
- Plant response rating, Surinam Grass (Surinam grass; [7]): 0
- Surinam Grass plant response rating (Surinam grass; 125 g ai/ha): 10
- Surinam Grass plant response rating (Surinam grass; 500 g ai/ha): 10
- Cocklebur plant response rating (0 to 100 scale) (cocklebur; [6]): 0
- Plant response rating, Cocklebur (cocklebur; [7]): 0
- Cocklebur plant response rating (cocklebur; 125 g ai/ha): 0
- Cocklebur plant response rating (cocklebur; 500 g ai/ha): 0
- Corn plant response rating (0 to 100 scale) (corn; [6]): 0
- Plant response rating, Corn (corn; [7]): 0
- Corn plant response rating (corn; 125 g ai/ha): 0
- Corn plant response rating (corn; 500 g ai/ha): 10
- Crabgrass, Large plant response rating (0 to 100 scale) (large crabgrass; [6]): 0
- Plant response rating, Crabgrass, Large (large crabgrass; [7]): 30
- Crabgrass, Large plant response rating (large crabgrass; 125 g ai/ha): 0
- Crabgrass, Large plant response rating (large crabgrass; 500 g ai/ha): 10
- Plant response rating, Foxtail, Giant (giant foxtail; [7]): 0
- Foxtail, Giant plant response rating (giant foxtail; 125 g ai/ha): 10
- Foxtail, Giant plant response rating (giant foxtail; 500 g ai/ha): 20
- Lambsquarters plant response rating (0 to 100 scale) (lambsquarters; [6]): 0
- Plant response rating, Lambsquarters (lambsquarters; [7]): 0
- Lambsquarters plant response rating (lambsquarters; 125 g ai/ha): 10
- Lambsquarters plant response rating (lambsquarters; 500 g ai/ha): 20
- Morningglory plant response rating (0 to 100 scale) (morningglory; [6]): 0
- Morningglory plant response rating (morningglory; 125 g ai/ha): 0
- Morningglory plant response rating (morningglory; 500 g ai/ha): 0
- Pigweed plant response rating (0 to 100 scale) (pigweed; [6]): 0
- Plant response rating, Pigweed (pigweed; [7]): 0
- Pigweed plant response rating (pigweed; 125 g ai/ha): 10
- Pigweed plant response rating (pigweed; 500 g ai/ha): 20
- Rice plant response rating (0 to 100 scale) (rice [2]; 125 g ai/ha, 0 = no effect, 100 = complete control): 0
- Plant response rating, Rice (rice [2]; 500 g ai/ha, visual rating 0-100, 0 no effect, 100 complete control): 0
- Velvetleaf plant response rating (0 to 100 scale) (velvetleaf; [6]): 0
- Plant response rating, Velvetleaf (velvetleaf; [7]): 20
- Velvetleaf plant response rating (velvetleaf; 125 g ai/ha): 0
- Velvetleaf plant response rating (velvetleaf; 500 g ai/ha): 0
- Blackgrass plant response rating (blackgrass; 125 g ai/ha): 0
- Blackgrass plant response rating (blackgrass; 500 g ai/ha): 0
- Wheat plant response rating (wheat; 125 g ai/ha): 0
- Wheat plant response rating (wheat; 500 g ai/ha): 0
- Oat, Wild plant response rating (wild oat; 125 g ai/ha): 0
- Oat, Wild plant response rating (wild oat; 500 g ai/ha): 0
- Rice plant response rating (rice [3]): 0
- Sedge, Umbrella plant response rating [4]: 0
- Ducksalad plant response rating (ducksalad): 0
- Barnyardgrass plant response rating (barnyardgrass [5]): 0
